# Target: IRAK4 (Homo sapiens (Human), UniProt Q9NWZ3)
# Assay: IRAK4 Inhibition Assay
# Assay type: biochemical
# Details: ATP 500 μM; IRAK4 0.6 nM
# Experimental: The assays were performed in U-bottom 384-well plates. The final assay volume was 30 μL prepared from 15 μL additions of enzyme and substrates (fluoresceinated peptide and ATP) and test compounds in assay buffer (20 mM HEPES pH 7.2, 10 mM MgCl2, 0.015% Brij 35 and 4 mM DTT). The reaction was initiated by the combination of IRAK4 with substrates and test compounds. The reaction mixture was incubated at room temperature for 60 min. and terminated by adding 45 μL of 35 mM EDTA to each sample. The reaction mixture was analyzed on the Caliper LABCHIP® 3000 (Caliper, Hopkinton, Mass.) by electrophoretic separation of the fluorescent substrate and phosphorylated product. Inhibition data were calculated by comparison to no enzyme control reactions for 100% inhibition and vehicle-only reactions for 0% inhibition. The final concentrations of reagents in the assays are ATP, 500 μM; FL-IPTSPITTTYFFFKKK peptide 1.5 μM; IRAK4, 0.6 nM; and DMSO, 1.6%.
# Sequence of IRAK4 (Q9NWZ3 whole entry): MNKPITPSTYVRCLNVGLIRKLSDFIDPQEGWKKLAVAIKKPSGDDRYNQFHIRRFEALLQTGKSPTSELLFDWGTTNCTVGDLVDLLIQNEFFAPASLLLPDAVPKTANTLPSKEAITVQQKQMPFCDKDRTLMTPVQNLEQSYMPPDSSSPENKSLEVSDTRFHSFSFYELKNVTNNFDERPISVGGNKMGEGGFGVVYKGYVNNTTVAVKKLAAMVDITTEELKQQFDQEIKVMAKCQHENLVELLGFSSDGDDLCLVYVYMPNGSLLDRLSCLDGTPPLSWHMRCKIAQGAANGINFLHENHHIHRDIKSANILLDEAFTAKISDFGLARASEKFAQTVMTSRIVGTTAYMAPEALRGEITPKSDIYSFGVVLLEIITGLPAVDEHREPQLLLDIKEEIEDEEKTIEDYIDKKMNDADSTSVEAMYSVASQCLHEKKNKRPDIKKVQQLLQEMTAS
row,SMILES,IC50
1,"COC1CC(Nc2cc(-c3cnn4cc(Cl)cnc34)ncc2C(=O)NC[C@@H](F)C(C)(C)O)CC1(F)F (single isomer, unassigned) [Example 14]",22 nM
2,"CC(C)Nc1cc(-c2cnn3cc(Cl)cnc23)ncc1C(=O)NCC(F)C(O)(CO)CO (centres unmarked) [Example 8, 6-(6-chloropyrazolo[1,5-a]pyrimidin-3-yl)-N-(2-fluoro-3,4-dihydroxy-3-(hydroxymethyl)butyl)-4-(isopropylamino)nicotinamide]",24 nM
3,"CC(C)Nc1cc(-c2cnn3cc(Cl)cnc23)ncc1C(=O)NCC(F)C1(O)COC1 (centres unmarked) [Example 9, 6-(6-chloropyrazolo[1,5-a]pyrimidin-3-yl)-N-(2-fluoro-2-(3-hydroxyoxetan-3-yl)ethyl)-4-(isopropylamino)nicotinamide]",5 nM
4,"CC(C)Nc1cc(-c2cnn3cc(Cl)cnc23)ncc1C(=O)Nc1cnn(CC(=O)NC[C@@H](F)C(C)(C)O)c1 [Example 10, (R)-6-(6-chloropyrazolo[1,5-a]pyrimidin-3-yl)-N-(1-(2-((2-fluoro-3-hydroxy-3-methylbutyl)amino)-2-oxoethyl)-1H-pyrazol-4-yl)-4-(isopropylamino)nicotinamide]",99 nM
5,"CO[C@H]1CC[C@H](NC(=O)c2cnc(-c3cnn4cc(Cl)cnc34)cc2NC(C)C)CC1 [Example 11, 6-(6-chloropyrazolo[1,5-a]pyrimidin-3-yl)-4-(isopropylamino)-N-((1R,4R)-4-methoxycyclohexyl)nicotinamide]",14 nM
6,"CC(C)(F)CCNC(=O)c1cnc(-c2cnn3cc(Cl)cnc23)cc1NC1COC1 [Example 12, 6-(6-chloropyrazolo[1,5-a]pyrimidin-3-yl)-N-(3-fluoro-3-methylbutyl)-4-(oxetan-3-ylamino)nicotinamide]",92 nM
7,"COC1CCC(F)(CCNC(=O)c2cnc(-c3cnn4cc(Cl)cnc34)cc2NC2COC2)CC1 (centres unmarked) [Example 17, 6-(6-chloropyrazolo[1,5-a]pyrimidin-3-yl)-N-(2-(1-fluoro-4-methoxycyclohexyl)ethyl)-4-(oxetan-3-ylamino)nicotinamide]",19 nM
8,"CNC(=O)[C@H]1CC[C@H](NC(=O)c2cnc(-c3cnn4cc(Cl)cnc34)cc2NCC(C)(C)F)CC1 [Example 24, 6-(6-chloropyrazolo[1,5-a]pyrimidin-3-yl)-4-((2-fluoro-2-methylpropyl)amino)-N-((1r,4r)-4-(methylcarbamoyl)cyclohexyl)nicotinamide]",35 nM
9,"CC(C)Nc1cc(-c2cnn3cc(Cl)cnc23)ncc1C(=O)NCCc1ccc(S(N)(=O)=O)cc1 [Example 26, 6-(6-chloropyrazolo[1,5-a]pyrimidin-3-yl)-4-(isopropylamino)-N-(4-sulfamoylphenethyl)nicotinamide]",8 nM
10,"CC(C)Nc1cc(-c2cnn3cc(Cl)cnc23)ncc1C(=O)N[C@H]1CC[C@H](C(=O)NC(C)C)CC1 [Example 29, 6-(6-chloropyrazolo[1,5-a]pyrimidin-3-yl)-4-(isopropylamino)-N-((1r,4r)-4-(isopropylcarbamoyl)cyclohexyl)nicotinamide]",24 nM
11,"CC(C)(O)[C@H](F)CNC(=O)c1cnc(-c2cnn3cc(Cl)cnc23)cc1N[C@@H]1CCN(c2ncc(F)cn2)C1 [Example 36, 6-(6-chloropyrazolo[1,5-a]pyrimidin-3-yl)-N—((R)-2-fluoro-3-hydroxy-3-methylbutyl)-4-(((R)-1-(5-fluoropyrimidin-2-yl)pyrrolidin-3-yl)amino)nicotinamide]",5 nM
12,"CC1(CNc2cc(-c3cnn4cc(Cl)cnc34)ncc2C(=O)NC[C@@H](F)C(C)(C)O)COC1 [Example 38, (R)-6-(6-chloropyrazolo[1,5-a]pyrimidin-3-yl)-N-(2-fluoro-3-hydroxy-3-methylbutyl)-4-(((3-methyloxetan-3-yl)methyl)amino)nicotinamide]",7 nM
13,"CC(C)(O)[C@H](F)CNC(=O)c1cnc(-c2cnn3cc(Cl)cnc23)cc1NCC1(O)COC1 [Example 39, (R)-6-(6-chloropyrazolo[1,5-a]pyrimidin-3-yl)-N-(2-fluoro-3-hydroxy-3-methylbutyl)-4-(((3-hydroxyoxetan-3-yl)methyl)amino)nicotinamide]",18 nM
14,"CC(C)(O)[C@H](F)CNC(=O)c1cnc(-c2cnn3cc(Cl)cnc23)cc1N[C@@H]1COC[C@H]1O [Example 42, 6-(6-chloropyrazolo[1,5-a]pyrimidin-3-yl)-N—((R)-2-fluoro-3-hydroxy-3-methylbutyl)-4-(((3R,4S)-4-hydroxytetrahydrofuran-3-yl)amino) nicotinamide]",8 nM
15,"CC(C)(O)[C@H](F)CNC(=O)c1cnc(-c2cnn3cc(Cl)cnc23)cc1N[C@@H]1COC[C@H]1F [Example 43, 6-(6-chloropyrazolo[1,5-a]pyrimidin-3-yl)-N—((R)-2-fluoro-3-hydroxy-3-methylbutyl)-4-(((3R,4S)-4-fluorotetrahydrofuran-3-yl)amino)nicotinamide]",17 nM
16,"CNC(=O)Cn1cc(NC(=O)c2cnc(-c3cnn4cc(Cl)cnc34)cc2NC(C)C)cn1 [Example 45, 6-(6-chloropyrazolo[1,5-a]pyrimidin-3-yl)-4-(isopropylamino)-N-(1-(2-(methylamino)-2-oxoethyl)-1H-pyrazol-4-yl)nicotinamide]",34 nM
17,"CC(C)(O)[C@H](F)CNC(=O)c1cnc(-c2cnn3cc(Cl)cnc23)cc1NC1CCOC1 (stereo partly drawn) [Example 53, 6-(6-chloropyrazolo[1,5-a]pyrimidin-3-yl)-N—((R)-2-fluoro-3-hydroxy-3-methylbutyl)-4-((tetrahydrofuran-3-yl)amino)nicotinamide]",4 nM
18,"CC(C)(O)[C@H](F)CNC(=O)c1cnc(-c2cnn3cc(Cl)cnc23)cc1NC1CCOC1 (stereo partly drawn) [Example 54, 6-(6-chloropyrazolo[1,5-a]pyrimidin-3-yl)-N—((R)-2-fluoro-3-hydroxy-3-methylbutyl)-4-((tetrahydrofuran-3-yl)amino)nicotinamide]",3 nM

# Second part, the molecule after the results:
row,IC50,SMILES
1,21 nM,"CC(C)(O)[C@H](F)CNC(=O)c1cnc(-c2cnn3cc(C#N)cnc23)cc1N[C@H]1COC[C@@H]1F (single isomer, unassigned) [Example 116]"
2,39 nM,"CC(C)(O)[C@H](F)CNC(=O)c1cnc(-c2cnn3cc(C#N)cnc23)cc1N[C@H]1COC[C@@H]1F (single isomer, unassigned) [Example 117]"
3,30 nM,"CC(C)(O)[C@H](F)CNC(=O)c1cnc(-c2cnn3cc(C#N)cnc23)cc1NCC1(O)CCCOC1 (single isomer, unassigned) [Example 122]"
4,42 nM,"CC(C)(O)[C@H](F)CNC(=O)c1cnc(-c2cnn3cc(C#N)cnc23)cc1NCC1(O)CCCOC1 (single isomer, unassigned) [Example 123]"
5,92 nM,"CC(C)(O)[C@H](F)CNC(=O)c1cnc(-c2cnc3cccnn23)cc1NC1COCC1O (single isomer, unassigned) [Example 134]"
6,44 nM,"CC(C)(O)[C@H](F)CNC(=O)c1cnc(-c2cnc3cccnn23)cc1NC1COCC1O (single isomer, unassigned) [Example 135]"
7,9 nM,"CC(C)Nc1cc(-c2cnn3cc(Cl)cnc23)ncc1C(=O)NCCC1(O)CCC(C)(O)CC1 (centres unmarked) [Example 55, 6-(6-chloropyrazolo[1,5-a]pyrimidin-3-yl)-N-(2-(1,4-dihydroxy-4-methylcyclohexyl)ethyl)-4-(isopropylamino)nicotinamide]"
8,6 nM,"CC(C)(O)[C@H](F)CNC(=O)c1cnc(-c2cnn3cc(Cl)cnc23)cc1N[C@H]1C[C@H](C(C)(C)O)C1 [Example 59, 6-(6-chloropyrazolo[1,5-a]pyrimidin-3-yl)-N—((R)-2-fluoro-3-hydroxy-3-methylbutyl)-4-(((1r,3R)-3-(2-hydroxypropan-2-yl)cyclobutyl)amino)nicotinamide]"
9,47 nM,"CC(C)Nc1cc(-c2cnn3cc(Cl)cnc23)ncc1C(=O)NCCC(=O)N1CCOCC1 [Example 62, 6-(6-chloropyrazolo[1,5-a]pyrimidin-3-yl)-4-(isopropylamino)-N-(3-morpholino-3-oxopropyl)nicotinamide]"
10,8 nM,"CC(C)Nc1cc(-c2cnn3cc(Cl)cnc23)ncc1C(=O)NCC(=O)N1CCC2(CCO2)CC1 [Example 63, 6-(6-chloropyrazolo[1,5-a]pyrimidin-3-yl)-4-(isopropylamino)-N-(2-oxo-2-(1-oxa-7-azaspiro[3.5]nonan-7-yl)ethyl)nicotinamide]"
11,5 nM,"CC(C)(O)[C@H](F)CNC(=O)c1cnc(-c2cnn3cc(Cl)cnc23)cc1NCC(F)(F)F [Example 64, (R)-6-(6-chloropyrazolo[1,5-a]pyrimidin-3-yl)-N-(2-fluoro-3-hydroxy-3-methylbutyl)-4-((2,2,2-trifluoroethyl)amino)nicotinamide]"
12,2 nM,"CC(C)(C)Nc1cc(-c2cnn3cc(Cl)cnc23)ncc1C(=O)NC[C@@H](F)C(C)(C)O [Example 72, (R)-4-(tert-butylamino)-6-(6-chloropyrazolo[1,5-a]pyrimidin-3-yl)-N-(2-fluoro-3-hydroxy-3-methylbutyl) nicotinamide]"
13,26 nM,"CC(C)Nc1cc(-c2cnn3cc(Cl)cnc23)ncc1C(=O)NC1CCN(S(=O)(=O)C(C)C)CC1 [Example 74, 6-(6-chloropyrazolo[1,5-a]pyrimidin-3-yl)-4-(isopropylamino)-N-(1-(isopropylsulfonyl)piperidin-4-yl)nicotinamide]"
14,99 nM,"CC(C)Nc1cc(-c2cnn3cc(Cl)cnc23)ncc1C(=O)N[C@@H]1CC[C@@H](CO)OC1 [Example 77, 6-(6-chloropyrazolo[1,5-a]pyrimidin-3-yl)-N-((3R,6S)-6-(hydroxymethyl)tetrahydro-2H-pyran-3-yl)-4-(isopropylamino)nicotinamide]"

# Source: patent publication US10618903B2, “Heteroaryl substituted aminopyridine compounds” (BRISTOL-MYERS SQUIBB COMPANY, priority 2015, dated 2020)
